Converted amounts (≈) assume the structure as drawn. “And” between values parts separate entries of the source, which are not always exact repeats. Identical values can stand only once.
Experiments:
Test in all cases: ≥ marks a high value that may be exact or a test limit, other limits are often not marked, values filed in µg/mL are converted to µM
[1] = system: Enterococcus faecium
[2] = system: Bacillus subtilis ATCC 6633
[3] = system: Escherichia coli ML-35
[4] = system: Candida albicans
[5] = system: Staphylococcus aureus ATCC 9144
[6] = system: Staphylococcus epidermidis ATCC 12228
[7] = system: Serratia marcescens
[8] = system: Staphylococcus aureus Cowan 1
[9] = system: Escherichia coli ATCC 25922
[10] = system: Staphylococcus aureus ATCC 25923
[11] = system: Salmonella enterica subsp. enterica serovar Typhimurium ATCC 14028
[12] = system: Escherichia coli ATCC 10536
[13] = system: Escherichia coli DH5alpha
[14] = system: Serratia marcescens ATCC 8100
[15] = system: Streptococcus agalactiae
[16] = system: Escherichia coli D21
[17] = system: Pseudomonas aeruginosa ATCC 27853
[18] = system: Staphylococcus aureus
[19] = system: Escherichia coli O18:K1:H7 Bort
[20] = system: Cryptococcus neoformans
[21] = system: Bacillus megaterium Bm11
[22] = system: Staphylococcus aureus 145/08
[23] = system: Staphylococcus aureus T4/6
[24] = system: Klebsiella pneumoniae ATCC 700603
[25] = system: Staphylococcus aureus 127/08
[26] = system: Escherichia coli ATCC 25726
[27] = system: Staphylococcus aureus 274/08
[28] = system: Staphylococcus aureus V4180
[29] = system: Staphylococcus aureus S908
[30] = system: Staphylococcus aureus NCTC 8325
[31] = system: Acinetobacter baumannii I NM8
[32] = system: Candida albicans ATCC 90028
[33] = system: Fusarium oxysporum
[34] = system: Trichoderma viride
[35] = system: Beauveria bassiana
[36] = system: Alternaria brassicicola
[37] = system: Botrytis cinerea
[38] = system: Neurospora crassa
[39] = system: Trichophyton mentagrophytes
[40] = system: Fusarium culmorum
[41] = system: Fusarium haematococcum
[42] = system: Aspergillus fumigatus

CC[C@H](C)[C@H](NC(=O)[C@H](CCCN=C(N)N)NC(=O)[C@@H](NC(=O)[C@@H](NC(=O)[C@@H]1CCCN1C(=O)[C@@H](NC(=O)[C@@H](NC(=O)[C@@H](NC(=O)[C@@H]1CCCN1C(=O)CNC(=O)[C@H](Cc1ccc(O)cc1)NC(=O)[C@H](CCCCN)NC(=O)[C@H](CCCCN)NC(=O)[C@H](Cc1c[nH]c2ccccc12)NC(=O)[C@H](C)NC(=O)[C@H](CCCN=C(N)N)NC(=O)[C@H](CC(C)C)NC(=O)[C@@H](NC(=O)[C@H](CCCCN)NC(=O)[C@H](CCCN=C(N)N)NC(=O)CNC(=O)[C@H](CC(C)C)NC(=O)[C@H](CO)NC(=O)[C@H](CCCN=C(N)N)NC(=O)[C@H](CC(C)C)NC(=O)CNC(=O)CN)[C@@H](C)CC)[C@@H](C)CC)[C@@H](C)CC)C(C)C)[C@@H](C)CC)[C@@H](C)CC)C(=O)NCC(N)=O [GGLRSLGRKILRAWKKYGPIIVPIIRIG]
MIC [1]: 2.83 µM (≈ 8.86 µg/mL)
MIC [2]: 1.6 µM (≈ 5.01 µg/mL)
MIC [3]: 2 µM (≈ 6.26 µg/mL)
MIC [4]: 8 µM (≈ 25 µg/mL)
MIC [5]: 3 µM (≈ 9.39 µg/mL)
MIC [6]: 1 µM (≈ 3.13 µg/mL)
MIC [7]: 8 µM (≈ 25 µg/mL)
MIC [8]: 1 µM (≈ 3.13 µg/mL)
MIC [9]: 2 µM (≈ 6.26 µg/mL)
MIC [10]: 2 µM (≈ 6.26 µg/mL)
MIC [11]: 1 µM (≈ 3.13 µg/mL)
MIC [12]: 2.6 µM (≈ 8.14 µg/mL)
MIC [13]: 2.4 µM (≈ 7.51 µg/mL)
MIC [14]: 2 µM (≈ 6.26 µg/mL)
MIC [15]: 2.83 µM (≈ 8.86 µg/mL)
MIC [16]: 0.5 µM (≈ 1.57 µg/mL)
MIC [17]: 2 µM and > 1 µM
MIC [18]: 2.83 µM (≈ 8.86 µg/mL)
MIC [19]: 2 µM (≈ 6.26 µg/mL)
MIC [20]: 4 µM (≈ 12.5 µg/mL)
MIC [21]: 2 µM (≈ 6.26 µg/mL)

CC(C)C[C@H](NC(=O)[C@H](CC(C)C)NC(=O)[C@H](CC(N)=O)NC(=O)[C@H](CO)NC(=O)CNC(=O)[C@@H](NC(=O)[C@H](CCCCN)NC(=O)[C@H](CC(C)C)NC(=O)CNC(=O)[C@@H](NC(=O)[C@H](CCCCN)NC(=O)[C@H](CC(C)C)NC(=O)[C@H](CC(C)C)NC(=O)[C@H](CO)NC(=O)CNC(=O)[C@H](CC(C)C)NC(=O)[C@H](Cc1ccccc1)NC(=O)CN)[C@@H](C)O)C(C)C)C(N)=O [GFLGSLLKTGLKVGSNLL]
MIC [22]: 5 µM (≈ 9.08 µg/mL)
MIC [23]: 5 µM (≈ 9.08 µg/mL)
MIC [24]: 50 µM (≈ 90.8 µg/mL)
MIC [25]: 5 µM (≈ 9.08 µg/mL)
MIC [9]: 50 µM (≈ 90.8 µg/mL)
MIC [26]: ≥ 50 µM
MIC [27]: 5 µM (≈ 9.08 µg/mL)
MIC [17]: 50 µM (≈ 90.8 µg/mL)
MIC [28]: 5 µM (≈ 9.08 µg/mL)
MIC [29]: 5 µM (≈ 9.08 µg/mL)
MIC [30]: ≥ 80 µM
MIC [31]: 6 µM (≈ 10.9 µg/mL)
MIC [32]: ≥ 100 µM

CC[C@H](C)[C@H](NC(=O)[C@H](Cc1cnc[nH]1)NC(=O)[C@H](CCC(=O)O)NC(=O)CNC(=O)[C@H](Cc1cnc[nH]1)NC(=O)[C@H](CC(N)=O)NC(=O)[C@H](Cc1ccccc1)NC(=O)[C@@H](NC(=O)[C@H](CCCCN)NC(=O)[C@@H](NC(=O)[C@H](CCC(N)=O)NC(=O)[C@@H](NC(=O)[C@H](Cc1cnc[nH]1)NC(=O)CNC(=O)[C@H](Cc1ccccc1)NC(=O)[C@H](CC(N)=O)NC(=O)[C@@H]1CCCN1C(=O)[C@H](CC(C)C)NC(=O)[C@H](CC(=O)O)NC(=O)[C@H](CCC(=O)O)NC(=O)[C@@H](N)Cc1ccccc1)[C@@H](C)CC)C(C)C)C(C)C)C(=O)N[C@@H](Cc1cnc[nH]1)C(=O)N[C@@H](Cc1cnc[nH]1)C(=O)O [FEDLPNFGHIQVKVFNHGEHIHH]
MIC [33]: 12.5 µM (≈ 34.4 µg/mL)
MIC [34]: 6.25 µM (≈ 17.2 µg/mL)
MIC [35]: ≥ 100 µM
MIC [36]: 6.25 µM (≈ 17.2 µg/mL)
MIC [37]: ≥ 100 µM
MIC [38]: ≥ 50 µM
MIC [39]: ≥ 100 µM
MIC [40]: 12.5 µM (≈ 34.4 µg/mL)
MIC [41]: 6.25 µM (≈ 17.2 µg/mL)
MIC [42]: ≥ 100 µM

Reference: DBAASP
